Measured values reported in US11826399B2, “Chlorotoxin agents and uses thereof” (Eisai Inc., priority 2017, dated 2023).
Where “and” joins values, the source holds several entries; their conditions need not be identical. Identical values can stand only once.

Assay: Plasma and tissue distribution of Cryptophycin Payload and Cryptophycin Metabolite 1 after Cryptophycin Payload alone or with CTX in PC-3 xenograft nude mice (LC-MS/MS)
Type: in vivo, mouse
Procedure: For the present experiment, materials, methods, drugs and model were as described in Example 21. […] Following intravenous administration, whole blood samples were collected at predetermined time points via cardiac puncture (n=3 mice per time point). Blood samples were centrifuged to obtain plasma and subsequently stored at […] or lower pending analysis. Additionally, at each time point, kidney, liver, small intestine, brain, heart, and tumor were harvested by removing entire specimen from surrounding tissues (only a portion of liver and small intestine were removed). After removal, tissues were rinsed with normal saline solution (contents of small intestine were emptied) and blotted dry with clean adsorptive tissue. Once dried, the specimens were weighed and stored at −20° C. or lower pending analysis. […] Pharmacokinetic (PK) parameters were calculated. Mean plasma and tissue concentrations were used to calculate mean PK parameters. Skin and skeletal muscle which were not assessed due to difficulty of homogenization.
Vehicle for single dose group was 10% ethanol, 5% Tween 80, 85% saline. Vehicle for combination treatment was 5% ethanol, 2.5% Tween 80, 92.5% saline.

[1] = Brain, Payload 0.4 mg/kg + CTX 16 mg/kg IV
[2] = Brain, Payload 0.4 mg/kg IV alone
[3] = Heart, Payload 0.4 mg/kg + CTX 16 mg/kg IV
[4] = Heart, Payload 0.4 mg/kg IV alone
[5] = Kidney, Payload 0.4 mg/kg + CTX 16 mg/kg IV
[6] = Kidney, Payload 0.4 mg/kg IV alone
[7] = Liver, Payload 0.4 mg/kg + CTX 16 mg/kg IV
[8] = Liver, Payload 0.4 mg/kg IV alone
[9] = Payload 0.4 mg/kg + CTX 16 mg/kg IV, 0.083 h
[10] = Payload 0.4 mg/kg + CTX 16 mg/kg IV, 0.5 h
[11] = Payload 0.4 mg/kg + CTX 16 mg/kg IV, 1 h
[12] = Payload 0.4 mg/kg + CTX 16 mg/kg IV, 2 h
[13] = Payload 0.4 mg/kg + CTX 16 mg/kg IV, 6 h
[14] = Payload 0.4 mg/kg + CTX 16 mg/kg IV, 24 h

With `CCCCNC(=O)Cc1ccccc1SSC(C)(C)CCN1CCN(Cc2ccc(C3OC3C(C)C3CC=CC(=O)NC(Cc4ccc(OC)c(Cl)c4)C(=O)NCC(C)(C)C(=O)NC(CC(C)C)C(=O)O3)cc2)CC1` (stereo not drawn) [Cryptophycin Payload] the “AUC(0-t) of Cryptophycin Payload” value [1] was 3.69 ng·h/g, the “tmax of Cryptophycin Payload” value [1] was 4.8 min and the “TPI of Cryptophycin Payload” value (Brain, Payload 0.4 mg/kg + CTX 16 mg/kg IV, AUC0-2 h tissue/AUC0-2 h plasma) was 0.0315 mL/g and 0.0315^d mL/g. For the same compound, the “AUC(0-inf) of Cryptophycin Payload” value [2] was 3.57 ng·h/g, the “AUC(0-t) of Cryptophycin Payload” value [2] was 3.02 ng·h/g and the “t1/2 of Cryptophycin Payload” value [2] was 0.941 h. The “tmax of Cryptophycin Payload” value [2] was 4.98 min and 4.8 min, the “TPI of Cryptophycin Payload” value (Brain, Payload 0.4 mg/kg IV alone, AUC0-2 h tissue/AUC0-2 h plasma) was 0.0208 mL/g and 0.0208^d mL/g and the “AUC(0-inf) of Cryptophycin Payload” value [3] was 62.0 ng·h/g. For the same compound, the “AUC(0-t) of Cryptophycin Payload” value [3] was 59.2 ng·h/g, the “t1/2 of Cryptophycin Payload” value [3] was 1.44 h and the “tmax of Cryptophycin Payload” value [3] was 4.8 min. For the same compound, the “TPI of Cryptophycin Payload” value (Heart, Payload 0.4 mg/kg + CTX 16 mg/kg IV, AUC0-inf tissue/AUC0-inf plasma) was 0.481 mL/g, the “AUC(0-inf) of Cryptophycin Payload” value [4] was 38.9 ng·h/g and the “AUC(0-t) of Cryptophycin Payload” value [4] was 36.8 ng·h/g. For the same compound, the “t1/2 of Cryptophycin Payload” value [4] was 1.71 h, the “tmax of Cryptophycin Payload” value [4] was 4.98 min and 4.8 min and the “TPI of Cryptophycin Payload” value (Heart, Payload 0.4 mg/kg IV alone, AUC0-inf tissue/AUC0-inf plasma) was 0.253 mL/g. For the same compound, the “AUC(0-inf) of Cryptophycin Payload” value [5] was 1230 ng·h/g, the “AUC(0-t) of Cryptophycin Payload” value [5] was 1210 ng·h/g and the “t1/2 of Cryptophycin Payload” value [5] was 4.19 h. For the same compound, the “tmax of Cryptophycin Payload” value [5] was 30 min, the “TPI of Cryptophycin Payload” value (Kidney, Payload 0.4 mg/kg + CTX 16 mg/kg IV, AUC0-inf tissue/AUC0-inf plasma) was 9.53 mL/g and the “AUC(0-inf) of Cryptophycin Payload” value [6] was 826 ng·h/g. For the same compound, the “AUC(0-t) of Cryptophycin Payload” value [6] was 804 ng·h/g, the “t1/2 of Cryptophycin Payload” value [6] was 4.70 h and the “tmax of Cryptophycin Payload” value [6] was 4.98 min and 4.8 min. The “TPI of Cryptophycin Payload” value (Kidney, Payload 0.4 mg/kg IV alone, AUC0-inf tissue/AUC0-inf plasma) was 5.36 mL/g, the “AUC(0-t) of Cryptophycin Payload” value [7] was 15.1 ng·h/g and the “tmax of Cryptophycin Payload” value [7] was 60 min. The “TPI of Cryptophycin Payload” value (Liver, Payload 0.4 mg/kg + CTX 16 mg/kg IV, AUC0-6 h tissue/AUC0-6 h plasma) was 0.118 mL/g and 0.118^c mL/g, the “AUC(0-t) of Cryptophycin Payload” value [8] was 9.65 ng·h/g and the “tmax of Cryptophycin Payload” value [8] was 4.98 min and 4.8 min. For the same compound, the “TPI of Cryptophycin Payload” value (Liver, Payload 0.4 mg/kg IV alone, AUC0-6 h tissue/AUC0-6 h plasma) was 0.0631 mL/g and 0.0631^c mL/g, the “Concentration of Cryptophycin Payload, Brain, Mean” value (“Concentration … Brain, Mean” for short) [9] was 3.97 ng/g and the “Concentration of Cryptophycin Payload, Heart, Mean” value (from here on “Concentration … Heart, Mean”) [9] was 47.3 ng/g. The “Concentration of Cryptophycin Payload, Kidney, Mean” value (from here on “Concentration … Kidney, Mean”) [9] was 389 ng/g, the “Concentration of Cryptophycin Payload, Liver, Mean” value (shortened to “Concentration … Liver, Mean”) [9] was 3.89 ng/g and the “Concentration of Cryptophycin Payload, Plasma, Mean” value (shortened to “Concentration … Plasma, Mean”) [9] was 268 ng/mL. For the same compound, the “Concentration of Cryptophycin Payload, Small Intestine, Mean” value (“Concentration … Small Intestine, Mean” below) [9] was 19.8 ng/g, the “Concentration of Cryptophycin Payload, Tumor, Mean” value (shortened to “Concentration … Tumor, Mean”) [9] was 12.5 ng/g and the “Concentration … Brain, Mean” value [10] was 2.09 ng/g. For the same compound, the “Concentration … Heart, Mean” value [10] was 41.3 ng/g, the “Concentration … Kidney, Mean” value [10] was 411 ng/g and the “Concentration … Liver, Mean” value [10] was 7.13 ng/g. For the same compound, the “Concentration … Plasma, Mean” value [10] was 37.9 ng/mL, the “Concentration … Small Intestine, Mean” value [10] was 13.4 ng/g and the “Concentration … Tumor, Mean” value [10] was 10.3 ng/g. For the same compound, the “Concentration … Brain, Mean” value [11] was 2.07 ng/g, the “Concentration … Heart, Mean” value [11] was 18.7 ng/g and the “Concentration … Kidney, Mean” value [11] was 317 ng/g. For the same compound, the “Concentration … Liver, Mean” value [11] was 7.13 ng/g, the “Concentration … Plasma, Mean” value [11] was 43.8 ng/mL and the “Concentration … Small Intestine, Mean” value [11] was 15.5 ng/g. For the same compound, the “Concentration … Tumor, Mean” value [11] was 9.46 ng/g, the “Concentration … Brain, Mean” value [12] was 0.703 ng/g and the “Concentration … Heart, Mean” value [12] was 6.37 ng/g. For the same compound, the “Concentration … Kidney, Mean” value [12] was 179 ng/g, the “Concentration … Liver, Mean” value [12] was 2.13 ng/g and the “Concentration … Plasma, Mean” value [12] was 7.53 ng/mL. For the same compound, the “Concentration … Small Intestine, Mean” value [12] was 5.66 ng/g, the “Concentration … Tumor, Mean” value [12] was 10.1 ng/g and the “Concentration … Brain, Mean” value [13] was “BLQ”. The “Concentration … Heart, Mean” value [13] was 1.39 ng/g, the “Concentration … Kidney, Mean” value [13] was 35.9 ng/g and the “Concentration … Liver, Mean” value [13] was 0.632 ng/g. For the same compound, the “Concentration … Plasma, Mean” value [13] was 0.537 ng/mL, the “Concentration … Small Intestine, Mean” value [13] was 0.873 ng/g and the “Concentration … Tumor, Mean” value [13] was 2.80 ng/g. The “Concentration … Brain, Mean” value [14] was “BLQ”, the “Concentration … Heart, Mean” value [14] was “BLQ” and the “Concentration … Kidney, Mean” value [14] was 3.39 ng/g.
